Measurements published in US20090247495A1, “CU[…] AND USES THEREOF” (priority 2007, published 2009).

Tests used:
[1] = tested on: Human GBM cell lines U87, T98G, U118, U343, U373; assay: MTT cell cytotoxicity assay, glioblastoma multiforme cell lines; format: cell-based; settings: 48 hours, range over the cell lines
Experimental: Human GBM cell lines U87, T98G, U118, U343, U373 cell lines were maintained in Dulbecco's modified Eagle's medium (Gibco, BRL) with 10% fetal calf serum (Gemini Bio-Products, Calabasas, Calif., USA), 10 U/ml penicillin G and […] streptomycin. They were all incubated at 37° C. in 5% CO2 atmosphere.
The cytotoxic effect of CuB on these cancer cell lines were determined using MTT (3-[4,5-dimethylthiazol-2-yl]-2,5-diphenyl tetrazolium bromide) labeled cell cytotoxicity assay. A total of 1×10^4 cells were seeded into a 96-well plate for 24 hours prior to cucurbitacin B (CuB) treatment. They were then treated with different dosages of CuB for 48 hours. After the treatment, 20 μl of MTT (5 mg/ml) was added to each well and incubated for 4 hrs. Then the medium was discarded and 100 μl of dimethyl sulfoxide was added. The absorbance at 570 nm was then measured by a microplate reader and the 50% inhibition concentration (IC50) were obtained. Results for untreated control cells were set as 100%, with remaining data shown as a percentage of control. Data represented the mean±standard error of triplicate samples.

[2] = tested on: Human liver cancer cell lines HepG2; assay: MTT cytotoxicity assay, matrix combination of CuB and Sb on liver cancer cells; format: cell-based; settings: HepG2, 2 days, Sb 0 μM
Experimental: Human liver cancer cell lines HepG2 was purchased from American Type Culture Collection (ATCC, Manassas, Va., USA). The cells were cultured in RPMI 1640 medium supplemented with 5% (v/v) fetal bovine serum (FBS) and 100 units/ml penicillin and streptomycin (Invitrogen Life Technologies) in a humidified 5% CO2 atmosphere at 37° C.
A total of 1×10^4 cells were seeded into a 96-well plate for 24 hours prior to drug treatment. They were then treated with different dosages (a multiple of 20-fold of IC50 values) of CuB or Sb for 48 hours. After the treatment, 20 μl of MTT (5 mg/ml) was added to each well and incubated for 4 hrs. Then the medium was discarded and 100 μl of dimethyl sulfoxide was added. The absorbance at 570 nm was then measured by using FLUOstar OPTIMA equipment (BMG, LABTECH GmbH, Germany). The percentage of inhibition against different dosages of CuB or Sb were plotted using the Prism software and the 50% inhibition concentration (IC50) were obtained.
The cells were then treated for 2 days and the % inhibition of growth is determined.
The excess over Bliss additivism may be calculated using the following formula and shown in Table 4: • Bliss Additivism: Combined response=CuB+Sb−(CuB)(Sb) where each effect is expressed as fractional inhibition between 0 and 1 • Excess over additivism=observed response−combined response

[3] = tested on: Panc-1; assay: MTT cell cytotoxicity assay, Panc-1; format: cell-based; settings: Homo sapiens
Experimental: Three human pancreatic cancer cell lines (Panc-1, Panc 02.13, Panc 10.05) were purchased from American Type Culture Collection (ATCC, Manassas, Va., USA). Panc 02.13 and Panc 10.05 were grown in RPMI 1640 medium supplemented with 15% FBS, 4.5 g/L glucose, 10 mM HEPES, and 1.0 mM sodium pyruvate and 10 Units/ml human insulin; while PANC-1 was grown in Dulbecco's modified Eagle's medium supplemented with 10% FBS. They were maintained in a humidified 5% CO2 atmosphere at 37° C. and the culture medium was changed once in 2 days.
The cytotoxic effect of CuB on these three cancer cell lines were determined using MTT (3-[4,5-dimethylthiazol-2-yl]-2,5-diphenyl tetrazolium bromide) labeled cell cytotoxicity assay. A total of 1×10^4 cells were seeded into a 96-well plate for 24 hours prior to cucurbitacin B (CuB) treatment. They were then treated with different dosages of CuB for 48 hours. After the treatment, 20 μl of MTT (5 mg/ml) was added to each well and incubated for 4 hrs. Then the medium was discarded and 100 μl of dimethyl sulfoxide was added. The absorbance at 570 nm was then measured by FLUOstar OPTIMA equipment (BMG, LABTECH GmbH, Germany). The percentage of inhibition against different dosages of CuB were plotted using the Prism software and the 50% inhibition concentration (IC50) were obtained. […]

[4] = tested on: HL60 and U937 cells; assay: Cytoskeletal staining (F-actin, confocal); format: cell-based, human; settings: two days
Experimental: HL60 and U937 cells were incubated with cucurbitacin B for two days at 37° C. Then the cells were centrifuged and fixed in 4% paraformaldehyde, permeabilized with 0.1% Triton X-100 in PBS, and incubated with FITC-conjugated anti-β-tubulin antibody, followed by rhodamine-phalloidin to detect filamentous F-actin. Confocal images were collected on a Leica microscope. […] Untreated HL 60 and U937 cells were depicted in FIGS. 15A and 15C, and cultured HL 60 and U937 cells were depicted in FIGS. 15B and 15D. • 6.2.8 Cucurbitacin B and Cucurbitacin D Inhibited Stat3 Activation and Stimulated Erk and Hsp27 Activation in HepG2, HT29 and MCF-7 Cells

[5] = tested on: MAPK signaling pathway; assay: Western blot of MAPK / cell cycle signaling proteins in HL60 cells; format: cell-based, human
Experimental: Control cells, as well as cells treated with cucurbitacin B or cucurbitacin D, were harvested and collected by centrifugation. Whole cell extracts were then prepared by lysing the cells using 4% sodium dodecyl sulfate (SDS) gel sample buffer. Cell extracts were boiled for 10 min and chilled on ice, subjected to 12% SDS-polyacrylamide gel electrophoresis, and transferred to a PVDF membrane. Each membrane was cut into to two pieces with one piece incubated at 4° C. overnight with antibodies against cell cycle signaling proteins, such as ERK, phosphorlated-ERK, p38, phosphorlated-p38, Cyclin E, Retinoblastoma, phosphalated-Retinoblastoma and c-myc, and apoptotic protein (PARP). β-actin was used as a control for protein loading. All antibodies were obtained from Cell signaling Technologies (USA). Then membranes were incubated at 37° C. for 1 h with secondary antibody conjugated with peroxidase, and the signal was detected using chemiluminescence detection reagent. The relative protein level was calculated as the ratio of the optical density of the protein of interest to that of β-actin.

CC(=O)OC(C)(C)/C=C/C(=O)[C@](C)(O)C1[C@H](O)C[C@@]2(C)C3CC=C4C(C[C@H](O)C(=O)C4(C)C)[C@]3(C)C(=O)C[C@]12C (some centres unmarked) [cucurbitacin B]
GI50 [1]: 0.05 to 0.1 µM | % inhibition ([2]; CuB 0.056 μM): 25.89% | Excess over Bliss additivism ([2]; CuB 0.056 μM): 0 | Excess over Highest Single Agent Model ([2]; CuB 0.056 μM): 0 | % inhibition ([2]; CuB 0.167 μM): 41.93% | Excess over Bliss additivism ([2]; CuB 0.167 μM): 0 | Excess over Highest Single Agent Model ([2]; CuB 0.167 μM): 0 | % inhibition ([2]; CuB 0.5 μM): 37.94% | Excess over Bliss additivism ([2]; CuB 0.5 μM): 0 | Excess over Highest Single Agent Model ([2]; CuB 0.5 μM): 0 | % inhibition ([2]; CuB 1.5 μM): 39.01% | Excess over Bliss additivism ([2]; CuB 1.5 μM): 0 | Excess over Highest Single Agent Model ([2]; CuB 1.5 μM): 0 | % inhibition ([2]; CuB 4.5 μM): 36.57% | Excess over Bliss additivism ([2]; CuB 4.5 μM): 0 | Excess over Highest Single Agent Model ([2]; CuB 4.5 μM): 0 | GI50 ([3]; MTT, 48 hours): 12.4 µM | IC50 ([3]; read-out: IC50 (dose used for western blot)): 0.8 µM | effect on cytoskeletal network (F-actin) [4]: rapid and improper polymerization of the F-actin network | regulation of ERK, cyclin E, retinoblastoma phosphorylation and c-myc [5]: ERK activation, followed by cyclin E down-regulation, inhibition of retinoblastoma's phosphorylation, and ultimately down-regulation of c-myc
